Drawing on PubChem BioAssay AID2305 (GlaxoSmithKline (GSK), 2010), this text covers IC50 for 86 compounds.

The structures appear in SMILES notation. Values joined by “and” are separate entries in the source; they are usually repeats but may differ in a detail not shown here. Identical values can stand only once.

The test system of this assay is P. falciparum 3D7 growth, pLDH absorbance. The assay can be described thus: blood-stage malaria parasite growth potency – strain 3D7, dose response (AID 2305).
`Cc1ccc(C)c(CC(=O)N2CCC(n3c(C)nc4ccc(F)cc43)CC2)c1` yielded a half-inhibitory concentration (IC50) of 190 nM.

Turning to `FC(F)(F)c1ccc2nccc(NN=Cc3cccnc3)c2c1`, the IC50 was determined as 630 nM.

`O=c1cc(NCCCNC2CCOc3c(Cl)cc(Cl)cc32)[nH]c2ccccc12` (stereo unspecified): the IC50 came to 720 nM.

`Cc1ccc(N2C(=O)C3C(C2=O)[C@]2(c4ccccc4)C(=O)[C@@]3(c3ccccc3)C(c3ccccc3)=C2c2ccccc2)c(C)c1` (stereo partly specified) showed a 50% inhibitory concentration (IC50) of 530 nM.

For `Cc1ccc(CN2CCCCC(NC(=O)c3cc4ccccc4s3)C2)cc1` (stereo unspecified), the half-inhibitory concentration (IC50) came to 900 nM.

The compound `COc1cccc(Nc2nccc(NCC(O)c3ccc(C(F)(F)F)cc3)n2)c1` (stereo unspecified) yielded a 50% inhibitory concentration (IC50) of 660 nM.

`CCN(CCCN1CCCCC1)c1cc(C)nc(Nc2ccc(C(C)C)cc2)n1` displayed a half-inhibitory concentration (IC50) of 540 nM.

Consider `c1ccc(-n2ncc(CNCc3ccc(-c4cccc(-c5nc6ccccc6[nH]5)c4)cc3)n2)cc1`, for which the IC50 is 1230 nM.

`CCCCCCn1c(Sc2ccc(C#N)c([N+](=O)[O-])c2)nnc1-c1cc(OC)cc(OC)c1`: the IC50 came to 770 nM.

Turning to `Cc1ccccc1C1CCN(C2CCC(NC(=O)/C=C/c3cccc(F)c3F)CC2)CC1` (stereo unspecified), the half-inhibitory concentration (IC50) came to 1150 nM.

As for `Cc1noc(C)c1-c1ccc2c(Nc3ccccc3C(C)(C)C)c(C(=O)NCc3ccccc3)cnc2c1`, the IC50 came to 760 nM.

In turn, `Fc1ccc2nc(-c3cccc(-c4ccc(CNCCN5CCNCC5)cc4)c3)[nH]c2c1` had an IC50 of 900 nM.

The compound `Nc1ncc(-c2ccc(Br)cc2)c(N)n1` gave an IC50 of 920 nM.

For the compound `O=S(=O)(NCCN1CCCC1)c1ccc(-c2cccc(CNC3Cc4ccccc4C3)c2)cc1`, the concentration for half-maximal inhibition (IC50) is 620 nM.

Consider `COc1ccc(NC(=O)N2CCc3ccc(OCCN(C(C)C)C(C)C)cc32)cc1C(F)(F)F`, for which the half-inhibitory concentration (IC50) was 970 nM.

`Cc1c(CNCCCNc2nc3ccccc3[nH]2)sc(C(F)F)c1Br` showed an IC50 of 290 nM.

Compound `Cc1cc(F)ccc1[C@H]1C[C@H](N2CCOCC2)CCN1C(=O)N(C)[C@@H](C)c1cc(C(F)(F)F)cc(C(F)(F)F)c1` registered an IC50 of 760 nM.

Take `CN(C)C(CNc1ncnc2cc(Cl)ccc12)Cc1ccccc1` (stereo unspecified): the IC50 worked out at 870 nM.

Regarding `CCN1CCN(C(=O)NC(C(=O)N2CCCC(COc3ccc(Cc4ccccc4)cc3)C2)c2cccs2)C(=O)C1=O` (stereo unspecified), the half-maximal inhibitory concentration (IC50) stood at 480 nM.

As to `CN(C)CCOc1cc(NC(=O)Nc2ccc(-c3ccncc3)c3ccccc23)ccc1I`, the IC50 was 780 nM.

`Cc1ccc(CN2CCN(c3cc4c(cc3Cl)CCN4C(=O)Cc3ccc(NC(=O)c4ccc(C(F)(F)F)cc4)cc3)CC2)cc1`: the IC50 stood at 940 nM.

`CN1CCN=C1c1ccc(NC(=O)Nc2ccc(C3=NCCN3C)cc2)cc1` returned an IC50 of 380 nM.

In turn, `CCn1c2c(c(=N)c3ccccc31)CCC2` had a half-maximal inhibitory concentration (IC50) of 500 nM.

For the compound `Cc1cccc2[nH]c(-c3cccc(-c4cccc(NC(=O)c5ccoc5)c4)c3)nc12`, the IC50 came to 220 nM.

`O=C(O)c1ccc(OCOCOc2ccc(C(=O)O)c(O)c2)cc1O` showed an IC50 of 190 nM.

`O=C(/C=C/c1ccc(Cl)c(Cl)c1)NCCCCCN1CCC(NC(=O)Nc2ccc(Br)cc2)CC1` showed an IC50 of 570 nM.

With `N#Cc1ccc(NC(=NC2Cc3ccccc3C2)Nc2cccc(Cl)c2Cl)c(O)c1`, the IC50 was 830 nM.

Compound `CCOC(=O)CNC(=O)N(CCN(Cc1ccccc1)C(=O)NCC(=O)OCC)Cc1ccccc1` showed an IC50 of 770 nM.

Consider `Oc1ccccc1CCNC1CCc2ccccc2C1` (stereo unspecified), for which the IC50 was 930 nM.

`O=C(C=Cc1cc([N+](=O)[O-])ccc1Cl)N1CCC(CCN2CCC(c3c[nH]c4ccccc34)CC2)CC1` had an IC50 of 740 nM.

The compound `COc1ccc(-c2cccc(NC(=O)c3cccc(Cl)c3)c2)cc1CN1CCN(C)CC1` showed an IC50 of 760 nM.

`COc1ccccc1-c1csc(C(=O)NCC2CCN(Cc3ccc(C(C)(C)C)cc3)C2)c1` (stereo unspecified): the IC50 is 1110 nM.

`O=C(Nc1ccc(-c2ccc(-c3nc4ccccc4[nH]3)cc2)cc1)Nc1ccc(Cl)c(Cl)c1` displayed a half-inhibitory concentration (IC50) of 100 nM.

Consider `CC(C)C[C@@H](NC(=O)NC1CCC(CCN2[C@@H]3CC[C@H]2CC(OC(=O)C(CO)c2ccccc2)C3)CC1)C(O)(c1ccccc1)c1ccccc1` (stereo partly specified), for which the IC50 turned out to be 1070 nM.

`N#Cc1ccc(-n2cc(C(=O)Nc3ccc4c(c3)CCN(C3CCC3)CC4)c(C(F)(F)F)n2)cc1` came in with a concentration for half-maximal inhibition (IC50) of 290 nM.

Compound `COc1ccc(C2CCN(CCCCNC(=O)c3ccc(NC(=O)c4ccc(Cl)cc4)cc3)C2)c(OC)c1` (stereo unspecified) returned an IC50 of 1200 nM.

`COc1ccc(-c2ccccc2CNc2nc(NCCc3ccc(O)cc3)nc(N3CCNCC3)n2)cc1` had an IC50 of 1080 nM.

In turn, `CC(C)C[C@@H]1C(=O)N[C@H](C2Cc3ccccc3C2)C(=O)N1[C@@H](C(=O)O)c1ccc(F)cc1F` came in with an IC50 of 840 nM.

`CN1CCN(c2ccc(Nc3ncc(Cl)c(Nc4cccnc4C(N)=O)n3)cc2)CC1` displayed an IC50 of 150 nM.

Regarding `CCN(CC)CCN(Cc1ccc(-c2ccc(C(F)(F)F)cc2)cc1)C(=O)Cn1c(SCc2ccc(F)cc2)nc(=O)c2sccc21`, the IC50 stood at 990 nM.

Take `FC(F)(F)c1ccc2nc(-c3cccc(-c4ccc(CNCc5cnn(-c6ccccc6)n5)cc4)c3)[nH]c2c1`: the IC50 turned out to be 1330 nM.

The compound `CC(=O)Nc1ccc2[nH]cc(C3CCN(CCC4CCN(C(=O)/C=C/c5ccc(Cl)c(Cl)c5)CC4)CC3)c2c1` showed an IC50 of 780 nM.

As to `CN1CCN(c2ccc(Nc3ccnc4ccc(-c5ccccc5)cc34)cc2)CC1`, the IC50 was 90 nM.

`CN(C)CCNCc1ncsc1-c1ccc2c(Nc3ccc(F)cc3Cl)ccnc2c1` yielded an IC50 of 1470 nM.

`Cc1ccc2nc3ccccc3c(NCCN3CCN(C)CC3)c2c1` displayed a half-maximal inhibitory concentration (IC50) of 590 nM.

`O=C(/C=C/c1ccc(Cl)c(Cl)c1)NCCCCCN1CCC(NC(=O)c2cccc(Cl)c2)CC1` yielded an IC50 of 690 nM.

As to `FC(F)(F)c1ccc2nc(-c3ccc(-c4cccc(CN5CCCCC5)c4)cc3)[nH]c2c1`, the concentration for half-maximal inhibition (IC50) was 140 nM.

Compound `CCOc1cc(C(=O)NCc2cccc(C(F)(F)F)c2)ccc1-c1nc2ccc(Cl)cc2[nH]1` registered an IC50 of 980 nM.

In the case of `C/C=C/COc1ccc(-c2c(C)[nH]c(C)c(Cl)c2=O)cc1`, the IC50 is 200 nM.

Compound `Cc1cc(F)ccc1-c1nc(NCC(O)CNCCc2ccccc2)nc2c1ccc(=O)n2-c1c(F)cccc1F` (stereo unspecified) yielded an IC50 of 540 nM.

In turn, `O=C(Nc1cccc([N+](=O)[O-])c1)Nc1ccc(Cl)c(C(F)(F)F)c1` displayed an IC50 of 1120 nM.

The compound `COc1ccc2nc3cc(Cl)ccc3c(Nc3ccc(O)c(CNC(C)C)c3)c2c1` displayed a 50% inhibitory concentration (IC50) of 140 nM.

The compound `CC(=O)c1cccc(NC(=O)c2ccc(Cl)c(S(=O)(=O)N3CCc4ccccc43)c2)c1` registered an IC50 of 1640 nM.

In the case of `O=C(N[C@@H](CC1CCCCC1)C(=O)NCCc1ccc(Cl)c(Cl)c1)c1ccc(O)c(-c2ccc(Cl)c(Cl)c2)c1`, the IC50 worked out at 160 nM.

In turn, `O=C(NCCCCCN1CCC(c2c[nH]c3ccccc23)CC1)c1ccc(Cl)c(Cl)c1` yielded a half-maximal inhibitory concentration (IC50) of 1360 nM.

For `Cc1ncc([N+](=O)[O-])n1CCOC(=O)NC(NCC1COc2ccccc2O1)C(Cl)(Cl)Cl` (stereo unspecified), the 50% inhibitory concentration (IC50) was determined as 220 nM.

As for `CC(C)c1ccc(CN2CCC(CNC(=O)c3cc(-c4cccc(Cl)c4)cs3)C2)cc1` (stereo unspecified), the IC50 stood at 750 nM.

For the compound `O=C(CCc1cnc[nH]1)Nc1ccc(-c2ccc(-c3nc4ccc(F)cc4[nH]3)cc2)cc1`, the IC50 came out at 690 nM.

The compound `Brc1cccc(Nc2nccc(Nc3ccc(Oc4ccccc4)cc3)n2)c1` yielded a half-maximal inhibitory concentration (IC50) of 1010 nM.

In turn, `Cc1cccc(C(=O)Nc2ccnc(N3CCCN(Cc4cccc(O)c4)CC3)c2)c1` displayed an IC50 of 1210 nM.

`CCOc1cc(C(=O)NCCN(C(C)C)C(C)C)ccc1-c1nc2ccc(Cl)cc2[nH]1` displayed an IC50 of 780 nM.

The compound `CCOC(=O)c1ccc2nc(-c3ccc(C(=O)NCc4ccc(C(C)(C)C)cc4)cc3)[nH]c2c1` displayed an IC50 of 850 nM.

With `Cc1cc(N(C)CCCN2CCCCC2)nc(Nc2ccc(Cl)cc2)n1`, the IC50 worked out at 190 nM.

`COc1ccc2oc(=O)c(C#N)c(O)c2c1`: the IC50 stood at 210 nM.

Take `O=C(Nc1cccc(-c2cc(-c3c(Cl)cccc3Cl)no2)c1)c1cnc2ccccc2c1`: the IC50 is 1100 nM.

As for `Cc1ccc(O)cc1Nc1ccnc2cc(-c3ccncc3)ccc12`, the IC50 amounted to 720 nM.

`CC1CCCCN1CCCNc1nc(NCc2ccccc2)c2ccccc2n1` (stereo unspecified) registered an IC50 of 950 nM.

`O=C(/C=C/c1ccc([N+](=O)[O-])cc1)N1CCC(NS(=O)(=O)c2ccc(Br)cc2)CC1`: the IC50 amounted to 1050 nM.

For `CN1CCOc2ccc(Nc3nnc(-c4cccc(-c5cccnc5)c4)o3)cc2C1`, the IC50 stood at 100 nM.

With `COc1cc2nc(N3CCC(CNC(=O)c4ccc(-c5ccc(O)cc5)cc4)CC3)nc(N)c2cc1OC`, the IC50 stood at 170 nM.

`CCNc1cc(C(=O)N[C@@H](Cc2ccccc2)[C@H](O)CNC(CC)c2cccc(Cl)c2)cc(N2CCCC2=O)c1` (stereo partly specified): the IC50 was 30 nM.

Regarding `O=C(c1ccc([N+](=O)[O-])o1)N1CCN(c2nc3c(F)cc(F)cc3s2)CC1`, the half-maximal inhibitory concentration (IC50) was 970 nM.

Consider `Cc1cc(=O)c(-c2ccc(Oc3cccc(C(F)(F)F)c3)cc2)c(C)[nH]1`, for which the half-inhibitory concentration (IC50) was 630 nM and 210 nM.

Turning to `CCOC(=O)N1CCN(CCCCCNc2cc(C)nc(/N=C(\N)Nc3ccc(Cl)cc3)n2)CC1`, the IC50 was found to be 150 nM.

Take `CCc1cn2c3c(cc(C(=O)N[C@@H](Cc4ccccc4)[C@H](O)CNCc4ccccc4)cc13)N(C)S(=O)(=O)CC2`: the half-inhibitory concentration (IC50) worked out at 660 nM.

Consider `COc1ccc(C(=O)COc2cccc(/C=C/C(=O)O)c2)cc1OC`, for which the IC50 amounted to 1320 nM.

Consider `CN(CCC(CCN1CCC(c2c[nH]c3ccccc23)CC1)c1ccccc1)C(=O)Nc1ccc(Cl)c(Cl)c1` (stereo unspecified), for which the IC50 is 1190 nM.

`CC(=O)c1ccc(-n2ccnc2)cc1` returned an IC50 of 850 nM.

`CCNc1cc(C)nc(Nc2ccc(NS(=O)(=O)c3ccccc3)cc2)n1` returned an IC50 of 790 nM.

`COc1cccc(NC(=O)CSc2nc(-c3ccccc3Cl)ns2)c1`: the IC50 amounted to 810 nM.

`O=C(NCc1cccc(CN2CCOCC2)c1)c1cc(Br)cc(N2CCN(c3ccncc3)CC2)c1` showed an IC50 of 860 nM.

As for `S=C(NCCc1ccc(Cl)cc1)NC1CCC(CN2CCC(c3c[nH]c4ccccc34)CC2)CC1` (stereo unspecified), the IC50 was determined as 700 nM.

Consider `COc1ccc(S(=O)(=O)NCC2CCCN(CCCCCNC(=O)/C=C/c3ccc(Cl)c(Cl)c3)C2)cc1` (stereo unspecified), for which the IC50 was determined as 1060 nM.

On to `O=C(Nc1ccc(-c2cccc(-c3nc4ccccc4[nH]3)c2)cc1)Nc1ccsc1`, for which the IC50 worked out at 250 nM.

The compound `CC(Cc1ccc(OCCN2CCN(c3cccc(Cl)c3)CC2)cc1)NCC(O)c1cccc(C(F)(F)F)c1` (stereo unspecified) gave a half-inhibitory concentration (IC50) of 600 nM.

Regarding `C=Cc1cc(NC(=O)N2CCc3cc(OC)c(C(F)(F)F)cc32)cc(-c2cccnc2)c1`, the IC50 was 700 nM.
